Results published in patent EP0153845A2, “CRF analogs” (THE SALK INSTITUTE FOR BIOLOGICAL STUDIES, priority 1984, dated 1985).
Square brackets hold non-standard residues; d marks the D form. Ends that are not written are not given here. Peptide text beside a SMILES is read from it. Nle = CCCC[C@H](N)C(=O)O

What was measured:
[1] = tested on: ACTH and B-END-LI secretion; experiment: ACTH and β-END-LI secretion in vivo after intravenous hCRF in rats
Procedure: Plasma levels of ACTH and B-END-LI are elevated for at least 5-20 minutes following the intraveneous administration of hCRF to nembutal-anesthesized male rats and to quiescent male or female rats with indwelling intravenous cannulae.

[2] = molecular target: T1, cultured rat pituitary cells (Rattus norvegicus, UniProt P35353); experiment: Block of ACTH and β-endorphin secretion by cultured rat pituitary cells by CRF antagonists (procedure of Example XLIII); assay type: cell-based; conditions: for secretion of ACTH and β-END-LI (antagonist test): general procedure of Example XLIII
T1 sequence (P35353 24-415): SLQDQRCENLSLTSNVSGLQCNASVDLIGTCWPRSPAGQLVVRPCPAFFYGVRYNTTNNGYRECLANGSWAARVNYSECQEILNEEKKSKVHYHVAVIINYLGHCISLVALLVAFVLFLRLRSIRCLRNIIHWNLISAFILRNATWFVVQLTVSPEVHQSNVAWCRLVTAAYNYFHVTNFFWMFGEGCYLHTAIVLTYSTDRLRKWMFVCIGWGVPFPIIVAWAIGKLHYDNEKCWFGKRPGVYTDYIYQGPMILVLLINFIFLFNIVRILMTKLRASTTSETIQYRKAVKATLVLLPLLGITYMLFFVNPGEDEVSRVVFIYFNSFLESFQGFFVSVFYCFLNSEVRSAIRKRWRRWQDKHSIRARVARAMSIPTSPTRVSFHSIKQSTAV
Procedure: (§1) The effectiveness of synthetic CRF antagonists to block the secretion of ACTH and B-endorphin by cultured rat pituitary cells is measured using the procedure as generally set forth in Vale et al., Endocrinology, 91, 562 (1972). In vivo testing is carried out using the general procedure set forth in C. Rivier et al., Science, 218, 377 (1982).

[3] = tested on: TRF-stimulated secretion of TSH and prolactin; experiment: Specificity: effect on TRF-stimulated TSH and prolactin secretion; assay type: cell-based
spontaneous ACTH release = experiment: Spontaneous ACTH release by adrenalectomized rats; assay type: in vivo; conditions: iv injection of 3 mg/kg BW (2.7 nmole)
Procedure: as §1
The in vivo effect of CRF antagonists is tested on the spontaneous ACTH release by adrenalectomized rats.

[4] = tested on: CRF-induced ACTH secretion; experiment: CRF-induced ACTH secretion in intact, non-anesthetized rats; assay type: in vivo
[5] = tested on: ACTH rise due to ether-exposure; experiment: Ether-exposure (stressor) induced ACTH rise in intact rats; assay type: in vivo
[6] = tested on: GRF-stimulated secretion of GH; experiment: Specificity: effect on GRF-stimulated GH secretion; assay type: cell-based
[7] = tested on: GnRH-stimulated secretion of LH and FSH; experiment: Specificity: effect on GnRH-stimulated LH and FSH secretion; assay type: cell-based
[8] = Lowering of blood pressure, in vivo testing by the general procedure of Example III

Compound	secretion of ACTH and β-END-LI (antagonist test) [2]	other results
CC[C@H](C)[C@H](NC(=O)[C@@H](NC(=O)[C@H](CCC(=O)O)NC(=O)[C@H](CCSC)NC(=O)[C@H](CC(C)C)NC(=O)[C@H](CCCCN)NC(=O)[C@H](CCCNC(=N)N)NC(=O)[C@H](CC(N)=O)NC(=O)[C@H](CO)NC(=O)[C@H](Cc1c[nH]cn1)NC(=O)[C@H](C)NC(=O)[C@H](CCC(N)=O)NC(=O)[C@H](CCC(N)=O)NC(=O)[C@H](C)NC(=O)[C@H](CC(C)C)NC(=O)[C@H](CCC(N)=O)NC(=O)[C@H](CCC(=O)O)NC(=O)[C@H](C)NC(=O)[C@H](CCCNC(=N)N)NC(=O)[C@H](C)NC(=O)[C@H](CCSC)NC(=O)[C@H](CCC(=O)O)NC(=O)[C@H](CC(C)C)NC(=O)[C@@H](NC(=O)[C@H](CCC(=O)O)NC(=O)[C@H](CCCNC(=N)N)NC(=O)[C@H](CC(C)C)NC(=O)[C@H](CC(C)C)NC(=O)[C@H](Cc1c[nH]cn1)NC(=O)[C@H](Cc1ccccc1)NC(=O)[C@@H](NC(=O)[C@H](CC(C)C)NC(=O)[C@H](CC(=O)O)NC(=O)[C@H](CC(C)C)NC(=O)[C@H](CO)NC(=O)[C@@H](NC(=O)[C@@H]1CCCN1C(=O)[C@@H]1CCCN1C(=O)[C@H](CCC(=O)O)NC(=O)[C@H](CCC(=O)O)NC(=O)[C@@H](N)CO)[C@@H](C)CC)[C@@H](C)O)C(C)C)[C@@H](C)CC)C(N)=O [hCRF]		time for which plasma levels of ACTH and B-END-LI are elevated ([1]; intravenous administration, nembutal-anesthetized male rats and quiescent male or female rats with indwelling intravenous cannulae): 5 to 20 min; ACTH and B-END-LI secretion in vivo ([1]; several rat preparations): powerful stimulator
CCCC[C@H](NC(=O)[C@H](CCC(=O)O)NC(=O)[C@H](CC(C)C)NC(=O)[C@@H](NC(=O)[C@H](CCC(=O)O)NC(=O)[C@H](CCCNC(=N)N)NC(=O)[C@H](CC(C)C)NC(=O)[C@H](CC(C)C)NC(=O)[C@H](Cc1c[nH]cn1)NC(=O)[C@H](Cc1ccccc1)NC(=O)[C@@H](NC(=O)[C@H](CC(C)C)NC(=O)[C@@H](N)CC(=O)O)[C@@H](C)O)C(C)C)C(=O)N[C@@H](C)C(=O)N[C@@H](CCCNC(=N)N)C(=O)N[C@@H](C)C(=O)N[C@@H](CCC(=O)O)C(=O)N[C@@H](CCC(N)=O)C(=O)N[C@@H](CC(C)C)C(=O)N[C@@H](C)C(=O)N[C@@H](CCC(N)=O)C(=O)N[C@@H](CCC(N)=O)C(=O)N[C@@H](C)C(=O)N[C@@H](Cc1ccc(O)cc1)C(=O)N[C@@H](CO)C(=O)N[C@@H](CC(N)=O)C(=O)N[C@@H](CCCNC(=N)N)C(=O)N[C@@H](CCCCN)C(=O)N[C@@H](CC(C)C)C(=O)N[C@@H](CCSC)C(=O)N[C@@H](CCC(=O)O)C(=O)N[C@H](C(=O)N[C@H](C(N)=O)[C@@H](C)CC)[C@@H](C)CC [[Nle^21, Tyr^32]-hCRF(9-41)] (H-DLTFHLLREVLE[Nle]ARAEQLAQQAYSNRKLMEII-NH2)	inhibits	
CCCC[C@H](N)C(=O)N[C@@H](CC(=O)O)C(=O)N[C@@H](CC(C)C)C(=O)N[C@@H](CO)C(=O)N[C@@H](Cc1ccccc1)C(=O)N[C@@H](Cc1c[nH]cn1)C(=O)N[C@@H](CC(C)C)C(=O)N[C@@H](CC(C)C)C(=O)N[C@@H](CCCNC(=N)N)C(=O)N[C@@H](CCC(=O)O)C(=O)N[C@H](C(=O)N[C@@H](CC(C)C)C(=O)N[C@@H](CCC(=O)O)C(=O)N[C@@H](CCSC)C(=O)N[C@@H](C)C(=O)N[C@@H](CCCNC(=N)N)C(=O)N[C@@H](C)C(=O)N[C@@H](CCC(=O)O)C(=O)N[C@@H](CCC(N)=O)C(=O)N[C@@H](CC(C)C)C(=O)N[C@@H](C)C(=O)N[C@@H](CCC(N)=O)C(=O)N[C@@H](CCC(N)=O)C(=O)N[C@@H](C)C(=O)N[C@@H](Cc1c[nH]cn1)C(=O)N[C@@H](CC(C)C)C(=O)N[C@@H](CC(N)=O)C(=O)N[C@@H](CCCNC(=N)N)C(=O)N[C@@H](CCCCN)C(=O)N[C@@H](CC(C)C)C(=O)N[C@@H](CCSC)C(=O)N[C@@H](CCC(=O)O)C(=O)N[C@H](C(=O)N[C@H](C(N)=O)[C@@H](C)CC)[C@@H](C)CC)C(C)C [[Nle^8, Ser^ll, Leu^33]-hCRF(8-41)] (H-[Nle]DLSFHLLREVLEMARAEQLAQQAHLNRKLMEII-NH2)	inhibits	
H-Asp-CML-Thr-Leu-Glu-CML-CML-Arg-Glu-Met-CML-Glu-Met-CMA-Lys-Ala-Glu-Gln-CML-Ala-Glu-Gln-Ala-CMA-CML-Asn-Arg-Leu-CML-Leu-Glu-Glu-. CMA-NB2	inhibits	
H-DLTFHLLREMLEMAKAEQEAEQAALNRLLLEEA-NH2 [AHC (9-41)]		effect on the TRF-stimulated secretion of TSH and prolactin [3]: no effect; plasma ACTH levels (spontaneous ACTH release) (spontaneous ACTH release): marked decrease; inhibition of CRF-induced ACTH secretion [4]: dose-related inhibition; ACTH rise due to ether-exposure [5]: prevents most, but not all; effect on the GRF-stimulated secretion of GH [6]: no effect; effect on the GnRH-stimulated secretion of LH and FSH [7]: no effect; type of inhibition of oCRF-stimulated ACTH secretion ([2]; different concentrations of oCRF, several concentrations of antagonist against oCRF (1 nM)): competitive inhibition
H-DLTFELLREVLEVARAEQLAQQAHSNRKLMEII-NH2 [[G1u^13, Val^21]-hCRF(9-41)]	inhibits	
CCCC[C@H](NC(=O)[C@@H](NC(=O)[C@@H](N)CC(C)C)[C@@H](C)O)C(=O)N[C@@H](Cc1c[nH]cn1)C(=O)N[C@@H](CC(C)C)C(=O)N[C@@H](CC(C)C)C(=O)N[C@@H](CCCNC(=N)N)C(=O)N[C@@H](CCC(=O)O)C(=O)N[C@H](C(=O)N[C@@H](CC(C)C)C(=O)N[C@@H](CCC(=O)O)C(=O)N[C@@H](CCSC)C(=O)N[C@@H](C)C(=O)N[C@@H](CCCNC(=N)N)C(=O)N[C@@H](C)C(=O)N[C@@H](CCC(=O)O)C(=O)N[C@@H](CCC(N)=O)C(=O)N[C@@H](CC(C)C)C(=O)N[C@@H](C)C(=O)N[C@@H](CCC(N)=O)C(=O)N[C@@H](CCC(N)=O)C(=O)N[C@@H](C)C(=O)N[C@@H](Cc1c[nH]cn1)C(=O)N[C@@H](CO)C(=O)N[C@@H](CC(N)=O)C(=O)N[C@@H](CCCNC(=N)N)C(=O)N[C@@H](CCCCN)C(=O)N[C@@H](CC(C)C)C(=O)N[C@@H](CCSC)C(=O)N[C@@H](CCC(=O)O)C(=O)N[C@H](C(=O)N[C@H](C(N)=O)[C@@H](C)CC)[C@@H](C)CC)C(C)C [[N1e^12]-hCRF(10-41)] (H-LT[Nle]HLLREVLEMARAEQLAQQAHSNRKLMEII-NH2)	inhibits	
LSLELLRKMIEARKQEKEKQQAANNRLLLDII-NH2	inhibits	
H-IDLTFHLLRNMIEMARNENQREQAGLNRKYLDEV-NH2 [Carp Urotensin 1(8-41)]	inhibits	
H-Asp-CML-Thr-Leu-Glu-CML-Leu-Arg-Glu-Met-CML-Glu-Met-Ala-Lys-Ala-Glu-Gln-CML-Ala-Glu-Gln-Ala-Ala-CML-Asn-Arg-Leu-CML-Leu-Glu-Glu-Ala-NH2 [[CML^10,14,19,27,33,38]-AHC(9-41)]	stimulates	lowering of blood pressure [8]: very significant lowering of blood pressure
H-DLTLELLREMLEMAKAEQEAEQAALNRLLLEEA-NH2 [[Leu^12, Glu^13]-AHC(9-41)]	inhibits	
CCCC[C@H](NC(=O)[C@H](CCC(=O)O)NC(=O)[C@H](CC(C)C)NC(=O)[C@H](CCCC)NC(=O)[C@H](CCC(=O)O)NC(=O)[C@H](CCCNC(=N)N)NC(=O)[C@H](CC(C)C)NC(=O)[C@H](CC(C)C)NC(=O)[C@H](Cc1c[nH]cn1)NC(=O)[C@H](Cc1ccccc1)NC(=O)[C@@H](NC(=O)[C@@H](N)CC(C)C)[C@@H](C)O)C(=O)N[C@@H](C)C(=O)N[C@@H](CCCCN)C(=O)N[C@@H](C)C(=O)N[C@@H](CCC(=O)O)C(=O)N[C@@H](CCC(N)=O)C(=O)N[C@@H](CCC(=O)O)C(=O)N[C@@H](C)C(=O)N[C@@H](CCC(=O)O)C(=O)N[C@@H](CCC(N)=O)C(=O)N[C@@H](C)C(=O)N[C@@H](C)C(=O)N[C@@H](CC(C)C)C(=O)N[C@@H](CC(N)=O)C(=O)N[C@@H](CCCNC(=N)N)C(=O)N[C@@H](CC(C)C)C(=O)N[C@@H](CC(C)C)C(=O)N[C@@H](CC(C)C)C(=O)N[C@@H](CCC(=O)O)C(=O)N[C@@H](CCC(=O)O)C(=O)N[C@@H](C)C(N)=O [[Nle^18,21]-AHC(10-41)] (H-LTFHLLRE[Nle]LE[Nle]AKAEQEAEQAALNRLLLEEA-NH2)	inhibits	
H-DLSLELLRKMIEIAKQEKEKQQAANNRLLMDTI-NH2 [[Ala^21, Met^37]-sauvagine(8-40)]	inhibits	
H-DLTFALLREMLEMAKAEQEAEQAALNRLLLEEA-NH2 [[Ala^13]-AHC(9-41)]	inhibits	
H-LDLTLELLREMLEMEKAEKEAEQAALNRLLLEEA-NH2 [[G1u^13,22, Leu^l2, Lys^26]-AHC(8-41)]	inhibits	
Ac-DLTFHLLREVLEMARAEQLAQQAHSNRKLMDII-NH2 [[Acetyl-Asp^9, Asp^39]-hCRF(9-41)]	inhibits	
